Experiment [1] relates to prostaglandins in guinea pig secondary aqueous humor. Nature of the experiment: Effect on prostaglandin composition in guinea pig aqueous humor (instillation of 0.003% ophthalmic solution, LC/MS/MS). The class given is in vivo, Hartley male guinea pig. The settings on record: 24 hr after instillation of 0.003% ophthalmic solution. On the procedure:
A test article was dissolved in saline containing 0.5% polysorbate80 (Fluka) and 0.003% ophthalmic solution (pH 7.0-8.0) was prepared. The test article was administered to Hartley male guinea pig by instillation of 20 μL thereof to one eye by using a micropipette. After instillation, the lacrimal part was lightly fixed by gently pressing the lower eyelid for about 15 seconds. The opposite eye was treated in the same manner. To the vehicle group was administered the medium (0.5% polysorbate-containing saline) by a method similar to that for the test article. After 23 hr from the instillation, Mydrin P (registered trade mark) 0.5% ophthalmic solution (Santen Pharmaceutical Co., Ltd., general name: tropicamide/phenylephrine hydrochloride) was dropwisely added by one drop to the both eyes of a guinea pig to cause mydriasis. The guinea pig was anesthetized with Escain (registered trade mark) inhalation anesthetics (Pfizer Inc., general name: isoflurane), the cornea of the both eyes was tapped with a 30G injection needle, and the leaked aqueous humor (primary aqueous humor) was collected. One hour later (24 hr after instillation), the guinea pig was anesthetized again with isoflurane, and the secondary aqueous humor was collected in the same manner. The concentration of prostaglandins in the secondary aqueous humor obtained from each group (4 guinea pigs, 8 eyes) was measured by the LC/MS/MS system (Ultra high performance liquid chromatography: Nexera (registered trademark) manufactured by Shimadzu Corporation, mass spectrometer: […]), and the concentration ratio of each prostaglandin concentration relative to the total of all prostaglandin concentrations was calculated.

The next experiment deals with T1, human mPGES-1 (Homo sapiens, UniProt O14684).
T1 construct: made in house; host or cells: FreeStyle CHO-S cells (Chinese hamster ovary), transient transfection with pcDNA3.1(+)/human mPGES-1; microsome fraction used
T1 sequence (O14684 1-152): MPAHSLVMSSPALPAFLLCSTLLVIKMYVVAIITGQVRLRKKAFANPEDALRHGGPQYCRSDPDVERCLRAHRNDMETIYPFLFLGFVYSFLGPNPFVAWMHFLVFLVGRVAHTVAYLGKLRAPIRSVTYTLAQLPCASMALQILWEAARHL
Nature of the experiment: Evaluation of human mPGES-1 enzyme inhibitory activity (PGE2 measured by HTRF, microsome fraction of CHO-S cells expressing human mPGES-1). It is filed as biochemical. The conditions noted are these: IC50 value; microsome fraction of CHO-S cells expressing human mPGES-1, PGE2 by HTRF. The procedure, abridged: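 Enzyme source: microsomes from CHO-S cells transfected with human mPGES-1 and cultured 48 hr, diluted to 5 μg/mL protein in reduced GSH (12.5 mmol/L KPB solution). Test articles were in 0.1 mol/L potassium phosphate pH 7.4, final DMSO 2% (v/v). PGE2 formed was quantified by HTRF.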
Background: TR-FRET usually uses a lanthanide donor and a delayed reading to cut background.

The results in this text go back to US12398111B2, “Triazine compounds and pharmaceutical use thereof” (Japan Tobacco Inc., priority 2014, dated 2025).

SMILES strings stand for the structures.

Take `CC(C(=O)NCc1ccc(Cl)c(-c2nc(O)nc(-c3ccc(OCC4CC4)cc3)n2)c1)(C(F)(F)F)C(F)(F)F` [Example 1-169, N-{4-chloro-3-[4-(4-cyclopropylmethoxyphenyl)-6-hydroxy-1,3,5-triazin-2-yl]benzyl}-3,3,3-trifluoro-2-methyl-2-trifluoromethylpropionamide]: in experiment [1], the “6-keto-PGF1α (%)” value came to 40.3%, the “PGD2 (%)” value stood at 17%, the “PGE2 (%)” value was found to be 28.7% and the “PGF2α (%)” value worked out at 13.5%. For the same molecule, the “TXB2 (%)” value in experiment [1] is listed as 0.5%. Half-maximal inhibition at human mPGES-1 (IC50) required 2 nM.

Take `CC(C)COc1ccc(-c2nc(O)nc(-c3cc(CNC(=O)C4(C(F)(F)F)CC4)ccc3Cl)n2)cc1` [Example 1-178, 1-trifluoromethylcyclopropanecarboxylic acid 4-chloro-3-[4-hydroxy-6-(4-isobutoxyphenyl)-1,3,5-triazin-2-yl]benzylamide]: in experiment [1], the “6-keto-PGF1α (%)” value was 36.6%, the “PGD2 (%)” value turned out to be 20.1%, the “PGE2 (%)” value was found to be 30% and the “PGF2α (%)” value stood at 13%. Further, the “TXB2 (%)” value in experiment [1] is recorded as 0.3%. This molecule returned an IC50 against human mPGES-1 of 1.4 nM.

For the molecule `C[C@H](Oc1ccc(-c2nc(O)nc(-c3cc(CNC(=O)C(C)(C)C(F)(F)F)ccc3Cl)n2)cc1)C1CC1` [Example 1-184, N-(4-chloro-3-{4-[4-((S)-1-cyclopropylethoxy)phenyl]-6-hydroxy-1,3,5-triazin-2-yl}benzyl)-3,3,3-trifluoro-2,2-dimethylpropionamide], in experiment [1], the “6-keto-PGF1α (%)” value is recorded as 21.2%, the “PGD2 (%)” value is 10.7%, the “PGE2 (%)” value stood at 57% and the “PGF2α (%)” value was 10.3%. Further, the “TXB2 (%)” value in experiment [1] is reported as 0.8%. The same molecule had an IC50 at human mPGES-1 of 1.9 nM.

In the case of `C[C@@H](Oc1ccc(-c2nc(O)nc(-c3cc(CNC(=O)C(C)(C)C(F)(F)F)ccc3Cl)n2)cc1)C1CC1` [Example 1-185, N-(4-chloro-3-{4-[4-((R)-1-cyclopropylethoxy)phenyl]-6-hydroxy-1,3,5-triazin-2-yl}benzyl)-3,3,3-trifluoro-2,2-dimethylpropionamide], in experiment [1], the “6-keto-PGF1α (%)” value was determined as 25.4%, the “PGD2 (%)” value was found to be 12.1%, the “PGE2 (%)” value is 50% and the “PGF2α (%)” value is reported as 11%. Further, the “TXB2 (%)” value in experiment [1] is reported as 1.6%. This molecule yielded an IC50 at human mPGES-1 of 1.7 nM.

As to `Cc1cccc(COc2cccc(C(F)(F)F)c2-c2nc(O)nc(-c3ccc(C#Cc4ccccc4)cc3)n2)n1.Cl` [Example 2-98, 4-[2-(6-methylpyridin-2-ylmethoxy)-6-trifluoromethylphenyl]-6-(4-phenylethynylphenyl)-1,3,5-triazin-2-ol hydrochloride], in experiment [1], the “6-keto-PGF1α (%)” value stood at 27.3%, the “PGD2 (%)” value was 20.1%, the “PGE2 (%)” value stood at 37.8% and the “PGF2α (%)” value stood at 14.8%. In addition, in experiment [1], the “TXB2 (%)” value stood at 0%. On human mPGES-1, this molecule had an IC50 of 3.7 nM.

A word on the IC50: it is the point on the concentration scale where inhibition reaches its midpoint.
